Where a name gives a salt, the structure may show the parent alone.
Columns and labels:
Assay in all cases: isoTOP-ABPP of compound-treated primary human T cells
Type in all cases: cell-based
[1] = target: T1, Cys residues in primary human T cells (Homo sapiens, UniProt O95081); conditions: AGFG2 C39 (O95081)
T1 sequence (O95081 1-481): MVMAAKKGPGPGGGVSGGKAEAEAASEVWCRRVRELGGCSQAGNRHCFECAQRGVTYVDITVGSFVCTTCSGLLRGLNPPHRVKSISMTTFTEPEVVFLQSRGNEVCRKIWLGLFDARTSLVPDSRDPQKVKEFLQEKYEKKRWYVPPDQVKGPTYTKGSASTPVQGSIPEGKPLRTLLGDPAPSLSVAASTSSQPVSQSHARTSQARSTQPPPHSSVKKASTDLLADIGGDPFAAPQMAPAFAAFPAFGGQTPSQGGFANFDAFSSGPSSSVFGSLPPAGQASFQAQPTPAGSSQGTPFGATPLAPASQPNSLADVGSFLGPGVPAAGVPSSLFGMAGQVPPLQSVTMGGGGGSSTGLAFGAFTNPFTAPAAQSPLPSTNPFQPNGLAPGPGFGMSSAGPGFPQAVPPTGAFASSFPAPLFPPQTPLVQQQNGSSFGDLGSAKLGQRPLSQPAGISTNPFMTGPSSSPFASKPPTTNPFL

[2] = target: T2, Cys residues in primary human T cells (Homo sapiens, UniProt Q9Y4W2); conditions: LAS1L C456 (Q9Y4W2)
T2 sequence (Q9Y4W2 1-734): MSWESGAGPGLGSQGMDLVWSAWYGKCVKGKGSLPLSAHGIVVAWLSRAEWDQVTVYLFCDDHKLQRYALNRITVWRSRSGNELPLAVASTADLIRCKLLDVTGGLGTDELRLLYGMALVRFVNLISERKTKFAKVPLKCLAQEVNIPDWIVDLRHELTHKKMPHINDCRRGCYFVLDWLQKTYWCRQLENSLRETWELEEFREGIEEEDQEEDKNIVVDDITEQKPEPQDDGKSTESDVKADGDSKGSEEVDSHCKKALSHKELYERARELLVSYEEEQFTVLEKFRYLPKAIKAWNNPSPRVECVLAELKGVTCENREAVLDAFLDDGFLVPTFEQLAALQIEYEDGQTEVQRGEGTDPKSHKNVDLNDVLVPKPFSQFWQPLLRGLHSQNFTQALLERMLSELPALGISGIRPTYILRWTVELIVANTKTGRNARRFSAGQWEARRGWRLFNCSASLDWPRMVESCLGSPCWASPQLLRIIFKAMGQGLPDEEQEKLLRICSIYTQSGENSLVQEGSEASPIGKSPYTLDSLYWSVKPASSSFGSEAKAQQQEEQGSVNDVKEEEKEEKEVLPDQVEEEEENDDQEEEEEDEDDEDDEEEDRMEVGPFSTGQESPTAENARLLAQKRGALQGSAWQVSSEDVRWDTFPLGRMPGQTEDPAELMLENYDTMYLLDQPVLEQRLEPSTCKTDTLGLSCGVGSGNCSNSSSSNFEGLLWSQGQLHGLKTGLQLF

[3] = target: Cys residues in primary human T cells (Homo sapiens, UniProt Q14005); conditions: IL16 C1004 (Q14005)
[4] = target: Cys residues in primary human T cells (Homo sapiens, UniProt Q8IYQ7); conditions: THNSL1 C324 (Q8IYQ7)
[5] = target: T3, Cys residues in primary human T cells (Homo sapiens, UniProt O14920); conditions: IKBKB C464 (O14920)
T3 sequence (O14920 1-756): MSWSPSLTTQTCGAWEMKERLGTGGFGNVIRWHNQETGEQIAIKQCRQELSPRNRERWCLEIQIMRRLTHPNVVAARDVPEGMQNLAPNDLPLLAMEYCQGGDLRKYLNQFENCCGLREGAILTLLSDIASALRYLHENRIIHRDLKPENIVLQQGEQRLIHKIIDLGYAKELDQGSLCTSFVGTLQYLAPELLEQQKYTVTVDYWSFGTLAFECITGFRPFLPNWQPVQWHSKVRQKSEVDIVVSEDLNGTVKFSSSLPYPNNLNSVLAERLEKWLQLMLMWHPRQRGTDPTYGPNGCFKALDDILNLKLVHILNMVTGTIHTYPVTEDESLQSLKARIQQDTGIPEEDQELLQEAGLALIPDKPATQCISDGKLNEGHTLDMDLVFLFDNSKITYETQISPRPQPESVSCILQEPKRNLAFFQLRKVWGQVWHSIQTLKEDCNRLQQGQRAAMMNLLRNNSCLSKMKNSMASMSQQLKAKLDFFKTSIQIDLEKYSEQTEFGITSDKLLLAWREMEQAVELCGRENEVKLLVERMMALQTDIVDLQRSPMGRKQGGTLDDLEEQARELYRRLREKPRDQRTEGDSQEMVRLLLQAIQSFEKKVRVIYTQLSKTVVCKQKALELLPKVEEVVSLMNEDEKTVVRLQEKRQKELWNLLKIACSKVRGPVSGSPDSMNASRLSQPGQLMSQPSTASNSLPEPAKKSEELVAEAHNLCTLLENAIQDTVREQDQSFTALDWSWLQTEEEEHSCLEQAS

[6] = target: Cys residues in primary human T cells (Homo sapiens, UniProt P31153)
[7] = target: Cys residues in primary human T cells (Homo sapiens, UniProt Q15005); conditions: SPCS2 C17 (Q15005)
[8] = target: Cys residues in primary human T cells (Homo sapiens, UniProt Q5T4S7); conditions: UBR4 C2554 (Q5T4S7)
Chain of Cys residues in primary human T cells (Homo sapiens, UniProt Q5T4S7) (Q5T4S7 whole entry): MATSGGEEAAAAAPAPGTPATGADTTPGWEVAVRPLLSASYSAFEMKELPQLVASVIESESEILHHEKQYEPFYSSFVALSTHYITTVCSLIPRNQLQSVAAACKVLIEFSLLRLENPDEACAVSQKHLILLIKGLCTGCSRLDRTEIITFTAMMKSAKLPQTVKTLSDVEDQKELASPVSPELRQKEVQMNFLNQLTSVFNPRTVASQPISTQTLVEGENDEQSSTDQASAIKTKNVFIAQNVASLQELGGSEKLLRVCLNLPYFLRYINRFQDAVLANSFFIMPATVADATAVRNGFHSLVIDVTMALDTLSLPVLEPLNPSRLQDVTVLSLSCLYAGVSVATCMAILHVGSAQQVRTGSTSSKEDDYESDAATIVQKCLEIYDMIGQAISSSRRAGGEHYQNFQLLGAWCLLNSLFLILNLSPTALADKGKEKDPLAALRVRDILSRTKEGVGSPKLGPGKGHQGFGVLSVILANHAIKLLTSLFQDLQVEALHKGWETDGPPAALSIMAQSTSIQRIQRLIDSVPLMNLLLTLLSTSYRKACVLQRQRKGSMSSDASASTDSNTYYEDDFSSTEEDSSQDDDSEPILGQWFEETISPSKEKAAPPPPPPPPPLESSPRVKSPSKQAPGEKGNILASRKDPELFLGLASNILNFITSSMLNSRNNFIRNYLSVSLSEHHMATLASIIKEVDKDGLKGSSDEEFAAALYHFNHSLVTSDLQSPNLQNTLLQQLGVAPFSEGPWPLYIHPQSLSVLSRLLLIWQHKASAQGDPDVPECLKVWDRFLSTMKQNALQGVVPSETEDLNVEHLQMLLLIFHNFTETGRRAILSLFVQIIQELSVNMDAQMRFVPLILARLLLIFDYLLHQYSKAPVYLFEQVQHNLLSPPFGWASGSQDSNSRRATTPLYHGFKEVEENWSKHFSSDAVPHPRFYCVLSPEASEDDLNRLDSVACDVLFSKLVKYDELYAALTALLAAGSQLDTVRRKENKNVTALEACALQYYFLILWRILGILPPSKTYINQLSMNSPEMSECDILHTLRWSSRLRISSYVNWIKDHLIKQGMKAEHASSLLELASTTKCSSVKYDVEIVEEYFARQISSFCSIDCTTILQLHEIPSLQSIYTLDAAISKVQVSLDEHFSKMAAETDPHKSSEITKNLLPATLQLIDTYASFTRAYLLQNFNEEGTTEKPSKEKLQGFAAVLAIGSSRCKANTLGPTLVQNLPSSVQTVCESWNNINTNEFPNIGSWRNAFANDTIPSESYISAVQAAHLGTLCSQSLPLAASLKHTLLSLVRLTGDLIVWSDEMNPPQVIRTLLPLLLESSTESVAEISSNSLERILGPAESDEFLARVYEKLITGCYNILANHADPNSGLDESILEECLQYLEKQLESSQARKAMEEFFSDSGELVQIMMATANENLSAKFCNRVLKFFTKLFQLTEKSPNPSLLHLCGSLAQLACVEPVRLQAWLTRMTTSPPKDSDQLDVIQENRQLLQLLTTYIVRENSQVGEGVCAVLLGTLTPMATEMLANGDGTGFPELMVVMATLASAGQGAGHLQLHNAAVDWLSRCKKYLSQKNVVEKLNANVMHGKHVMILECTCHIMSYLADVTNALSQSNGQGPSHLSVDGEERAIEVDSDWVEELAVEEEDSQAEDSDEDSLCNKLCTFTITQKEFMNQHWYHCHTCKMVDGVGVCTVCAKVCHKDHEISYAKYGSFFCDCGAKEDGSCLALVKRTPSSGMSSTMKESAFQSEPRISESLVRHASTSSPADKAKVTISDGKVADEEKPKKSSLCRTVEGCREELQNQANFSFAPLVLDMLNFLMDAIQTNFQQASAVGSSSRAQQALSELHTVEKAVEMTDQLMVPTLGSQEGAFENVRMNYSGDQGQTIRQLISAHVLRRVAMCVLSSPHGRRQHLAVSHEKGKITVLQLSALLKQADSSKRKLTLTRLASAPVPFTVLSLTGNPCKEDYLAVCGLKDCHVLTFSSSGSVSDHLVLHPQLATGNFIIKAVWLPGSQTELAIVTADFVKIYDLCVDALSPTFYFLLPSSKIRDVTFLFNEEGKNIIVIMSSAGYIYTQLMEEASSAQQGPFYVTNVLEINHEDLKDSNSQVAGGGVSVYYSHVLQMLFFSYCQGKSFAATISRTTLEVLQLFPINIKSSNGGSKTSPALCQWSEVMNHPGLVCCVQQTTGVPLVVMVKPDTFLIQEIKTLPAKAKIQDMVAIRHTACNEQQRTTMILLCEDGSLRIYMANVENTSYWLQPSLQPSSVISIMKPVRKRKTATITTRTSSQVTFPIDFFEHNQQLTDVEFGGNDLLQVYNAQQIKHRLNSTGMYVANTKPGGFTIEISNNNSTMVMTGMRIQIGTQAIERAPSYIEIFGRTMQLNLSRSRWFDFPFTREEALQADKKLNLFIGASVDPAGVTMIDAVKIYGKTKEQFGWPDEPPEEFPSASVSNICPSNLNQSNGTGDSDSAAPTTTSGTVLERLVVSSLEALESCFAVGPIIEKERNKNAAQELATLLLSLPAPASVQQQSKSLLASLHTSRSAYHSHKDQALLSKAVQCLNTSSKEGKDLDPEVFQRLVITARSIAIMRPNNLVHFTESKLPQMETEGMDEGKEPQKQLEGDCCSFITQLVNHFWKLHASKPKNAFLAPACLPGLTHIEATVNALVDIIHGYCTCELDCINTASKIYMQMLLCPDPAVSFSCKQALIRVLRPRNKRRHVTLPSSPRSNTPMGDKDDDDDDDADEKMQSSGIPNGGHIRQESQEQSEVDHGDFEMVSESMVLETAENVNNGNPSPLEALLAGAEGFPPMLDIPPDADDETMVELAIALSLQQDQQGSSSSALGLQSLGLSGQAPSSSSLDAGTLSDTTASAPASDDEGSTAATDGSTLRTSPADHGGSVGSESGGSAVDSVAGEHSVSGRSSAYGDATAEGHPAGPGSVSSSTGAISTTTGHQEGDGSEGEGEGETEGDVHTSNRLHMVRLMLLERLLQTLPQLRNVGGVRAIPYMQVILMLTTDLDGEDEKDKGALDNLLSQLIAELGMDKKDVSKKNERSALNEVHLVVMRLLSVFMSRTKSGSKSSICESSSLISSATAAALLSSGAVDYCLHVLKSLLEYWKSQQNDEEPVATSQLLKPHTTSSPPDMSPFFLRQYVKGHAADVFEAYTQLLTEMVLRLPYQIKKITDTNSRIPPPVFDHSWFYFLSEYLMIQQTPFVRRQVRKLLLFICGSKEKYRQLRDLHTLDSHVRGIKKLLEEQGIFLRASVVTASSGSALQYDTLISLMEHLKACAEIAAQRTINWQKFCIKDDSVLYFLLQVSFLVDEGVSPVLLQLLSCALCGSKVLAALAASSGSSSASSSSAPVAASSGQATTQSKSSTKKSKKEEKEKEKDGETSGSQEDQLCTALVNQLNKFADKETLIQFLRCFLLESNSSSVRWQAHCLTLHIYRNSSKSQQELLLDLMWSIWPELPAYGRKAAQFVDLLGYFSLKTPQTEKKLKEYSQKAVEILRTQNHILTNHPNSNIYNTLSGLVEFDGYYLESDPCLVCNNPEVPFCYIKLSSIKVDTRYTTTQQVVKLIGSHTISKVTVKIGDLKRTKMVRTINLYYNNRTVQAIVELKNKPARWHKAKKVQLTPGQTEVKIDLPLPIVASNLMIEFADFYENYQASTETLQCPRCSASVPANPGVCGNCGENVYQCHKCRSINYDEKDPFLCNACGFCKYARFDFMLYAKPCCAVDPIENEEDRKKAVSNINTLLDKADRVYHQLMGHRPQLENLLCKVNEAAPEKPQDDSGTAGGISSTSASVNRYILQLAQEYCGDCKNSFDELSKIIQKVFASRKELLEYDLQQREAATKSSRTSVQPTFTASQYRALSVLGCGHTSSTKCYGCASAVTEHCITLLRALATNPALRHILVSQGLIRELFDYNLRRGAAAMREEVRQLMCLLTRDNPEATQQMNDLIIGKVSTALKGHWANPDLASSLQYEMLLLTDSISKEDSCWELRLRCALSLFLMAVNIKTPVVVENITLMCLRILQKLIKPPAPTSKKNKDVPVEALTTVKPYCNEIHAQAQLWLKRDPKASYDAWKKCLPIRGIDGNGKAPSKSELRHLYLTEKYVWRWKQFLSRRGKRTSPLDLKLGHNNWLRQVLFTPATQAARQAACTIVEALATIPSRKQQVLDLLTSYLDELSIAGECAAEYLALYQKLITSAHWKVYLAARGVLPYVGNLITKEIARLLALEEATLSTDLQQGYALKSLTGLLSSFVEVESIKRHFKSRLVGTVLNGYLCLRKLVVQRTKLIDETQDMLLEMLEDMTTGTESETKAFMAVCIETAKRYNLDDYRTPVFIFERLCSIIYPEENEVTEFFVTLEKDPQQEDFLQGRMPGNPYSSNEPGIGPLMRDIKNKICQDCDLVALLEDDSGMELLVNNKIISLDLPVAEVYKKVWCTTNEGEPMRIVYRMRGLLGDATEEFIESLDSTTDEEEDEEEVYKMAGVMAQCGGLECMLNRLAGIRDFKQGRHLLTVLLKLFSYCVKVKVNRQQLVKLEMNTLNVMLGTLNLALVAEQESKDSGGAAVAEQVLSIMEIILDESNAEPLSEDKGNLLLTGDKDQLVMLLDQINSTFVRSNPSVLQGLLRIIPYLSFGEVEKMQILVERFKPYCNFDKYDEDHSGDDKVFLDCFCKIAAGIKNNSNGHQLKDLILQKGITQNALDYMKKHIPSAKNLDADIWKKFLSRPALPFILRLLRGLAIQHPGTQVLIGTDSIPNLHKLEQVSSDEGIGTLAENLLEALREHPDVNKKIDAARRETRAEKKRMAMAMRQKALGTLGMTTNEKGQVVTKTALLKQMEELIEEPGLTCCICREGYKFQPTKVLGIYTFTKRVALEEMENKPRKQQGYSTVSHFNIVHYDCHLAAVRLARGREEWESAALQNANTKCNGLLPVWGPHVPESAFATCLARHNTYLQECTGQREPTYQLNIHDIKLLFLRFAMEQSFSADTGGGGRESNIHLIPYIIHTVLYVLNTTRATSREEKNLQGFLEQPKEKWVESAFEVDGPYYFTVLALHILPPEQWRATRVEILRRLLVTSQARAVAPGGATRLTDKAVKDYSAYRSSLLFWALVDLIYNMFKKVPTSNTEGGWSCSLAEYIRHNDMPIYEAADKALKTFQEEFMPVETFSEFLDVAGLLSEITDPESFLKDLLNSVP

COC(=O)/C=C/C(=O)OC [DMF, dimethyl fumarate]
R value (DMSO/DMF) ([1]; DMF 10 μM 4h): 1.42
R value (DMSO/DMF) ([1]; DMF 50 μM 2h): 3.85
R value (DMSO/DMF) ([1]; DMF 50 μM 4h): 6.39
R value (DMSO/DMF) ([2]; DMF 10 μM 4h): 1.29
R value (DMSO/DMF) ([2]; DMF 50 μM 1h): 1.8
R value (DMSO/DMF) ([2]; DMF 50 μM 2h): 3.42
R value (DMSO/DMF) ([2]; DMF 50 μM 4h): 5.61
R value (DMSO/DMF) ([3]; DMF 10 μM 4h): 1.37
R value (DMSO/DMF) ([3]; DMF 50 μM 1h): 1.95
R value (DMSO/DMF) ([3]; DMF 50 μM 2h): 3.32
R value (DMSO/DMF) ([3]; DMF 50 μM 4h): 4.13
R value (DMSO/DMF) ([4]; DMF 50 μM 1h): 15.93
R value (DMSO/DMF) ([4]; DMF 50 μM 2h): 19.36
R value (DMSO/DMF) ([5]; DMF 10 μM 4h): 2.59
R value (DMSO/DMF) ([5]; DMF 50 μM 1h): 3.96
R value (DMSO/DMF) ([5]; DMF 50 μM 2h): 10.12
R value (DMSO/DMF) ([5]; DMF 50 μM 4h): 20
R value (DMSO/DMF) ([6]; MAT2A C56 (P31153), DMF 50 μM 4h): 4.17
R value (DMSO/DMF) ([6]; MAT2A C104 (P31153), DMF 10 μM 4h): 1.5
R value (DMSO/DMF) ([6]; MAT2A C104 (P31153), DMF 50 μM 4h): 4.11
R value (DMSO/DMF) ([7]; DMF 10 μM 4h): 1.42
R value (DMSO/DMF) ([7]; DMF 25 μM 4h): 2.41
R value (DMSO/DMF) ([7]; DMF 50 μM 1h): 2.25
R value (DMSO/DMF) ([7]; DMF 50 μM 2h): 3.86
R value (DMSO/DMF) ([7]; DMF 50 μM 4h): 5.09
R value (DMSO/DMF) ([8]; DMF 10 μM 4h): 1.52
R value (DMSO/DMF) ([8]; DMF 50 μM 1h): 1.6
R value (DMSO/DMF) ([8]; DMF 50 μM 2h): 2.1
R value (DMSO/DMF) ([8]; DMF 50 μM 4h): 4.63
